pEC50, pIC50: −log10 of the molar value. Like-named read-outs stand apart in the source and are kept apart here.
Columns and labels:
CD73 [1] = biological target: T1, CD73 (Homo sapiens, UniProt P21589); experiment: CD73 Biochemical IC50 Assay; settings: final AMP 15 uM, final CD73 0.3 nM, 25 mM Tris pH 7.4, 5 mM MgCl2, no phosphate
T1 construct: purchased R&D system
T1 sequence (P21589 27-549): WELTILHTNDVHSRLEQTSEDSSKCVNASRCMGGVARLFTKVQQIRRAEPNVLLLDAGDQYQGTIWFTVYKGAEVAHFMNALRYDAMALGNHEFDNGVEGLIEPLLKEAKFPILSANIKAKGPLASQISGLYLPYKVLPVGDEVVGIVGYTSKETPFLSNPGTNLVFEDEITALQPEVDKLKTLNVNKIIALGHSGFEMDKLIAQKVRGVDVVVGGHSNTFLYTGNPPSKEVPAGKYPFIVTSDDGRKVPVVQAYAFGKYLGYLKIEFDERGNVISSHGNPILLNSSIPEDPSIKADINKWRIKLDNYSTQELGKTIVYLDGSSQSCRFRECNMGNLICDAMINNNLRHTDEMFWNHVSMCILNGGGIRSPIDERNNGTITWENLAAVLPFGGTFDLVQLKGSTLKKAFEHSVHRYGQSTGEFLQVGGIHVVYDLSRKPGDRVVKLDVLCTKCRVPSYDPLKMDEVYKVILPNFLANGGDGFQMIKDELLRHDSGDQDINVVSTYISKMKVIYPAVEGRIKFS
Description: CD73 Biochemical IC50 Assay
Compound serial dilutions were pre-spotted into Thermo Nunc assay plate. 50 μL CD73 enzyme buffer (CD73 purchased from R&D system=0.6 nM, 25 mM Tris, pH 7.4, 5 mM MgCl2) was added into the assay plate and incubated for 15 mins. […] The samples were run using Rapid fire.

CD73 [2] = biological target: T1, CD73; assay type: biochemical; settings: 1 mM NaH2PO4 in enzyme buffer, final AMP 15 uM, final CD73 0.3 nM
[3] = biological target: T2, CD73 activity in MDA-MB-231-GFP cells (Homo sapiens, UniProt P21589); experiment: MDA-MB-231 Cell Based CD73 Activity Assay; settings: 10000 cells per well, RPMI medium with 10% human plasma, overnight compound treatment, AMP 200 μM
T2 construct: endogenous in cells; host or cells: MDA-MB-231-GFP cells
T2 sequence (P21589 27-549): T1 sequence (P21589 27-549)
Description: MDA-MB-231 Cell Based CD73 Activity Assay
MDA-MB-231-GFP cells were seeded in 384-well plates (Greiner 781946) at a density of 10000 cells per well in 50 μL of RPMI medium with 10% HP (human plasma). Cells were plated into assay plate with compounds pre-spotted, for an overnight compound treatment. 50 μL of 400 μM AMP (final concentration 200 μM) using a Bio-tek dispenser. Plates were incubated for 100 mins. […] The samples were run using Rapid fire.

[4] = biological target: T2, CD73 activity in MDA-MB-231-GFP cells; experiment: MDA-MB-231 Cell Based CD73 Activity Assay (DMEM); settings: 3000 cells per well, DMEM medium with 10% human plasma, overnight compound treatment, AMP 200 uM

Row | Structure (SMILES) | pIC50 (CD73 [1]) | pIC50 (CD73 [2]) | pEC50 [3] | pEC50 [4]
1 | O=c1[nH]cc(-c2cc([C@@H]3C[C@H]3c3ccc(F)cc3)c3nccn3n2)c(=O)[nH]1 (racemic) [Example 30, 5-(8-((1S,2S)-2-(4-fluorophenyl)cyclopropyl)imidazo[1,2-b]pyridazin-6-yl)pyrimidine-2,4(1H,3H)-dione and 5-(8-((1R,2R)-2-(4-fluorophenyl)cyclopropyl)imidazo[1,2-b]pyridazin-6-yl)pyrimidine-2,4(1H,3H)-dione] | 8.63 | 8.68 | 8.59 | 8.29
2 | O=c1[nH]cc(-c2cc([C@@H]3C[C@H]3c3ccc(F)cc3F)c3nccn3n2)c(=O)[nH]1 (racemic) [Example 31, 5-(8-((1S,2S)-2-(2,4-difluorophenyl)cyclopropyl)imidazo[1,2-b]pyridazin-6-yl)pyrimidine-2,4(1H,3H)-dione and 5-(8-((1R,2R)-2-(2,4-difluorophenyl)cyclopropyl)imidazo[1,2-b]pyridazin-6-yl)pyrimidine-2,4(1H,3H)-dione] | 8.26 | 9.03 | 8.42 | 8.32
3 | O=c1[nH]cc(-c2cc([C@@H]3C[C@H]3c3ccc(F)c(F)c3)c3nccn3n2)c(=O)[nH]1 (racemic) [Example 33, 5-(8-((1S,2S)-2-(3,4-difluorophenyl)cyclopropyl)imidazo[1,2-b]pyridazin-6-yl)pyrimidine-2,4(1H,3H)-dione and 5-(8-((1R,2R)-2-(3,4-difluorophenyl)cyclopropyl)imidazo[1,2-b]pyridazin-6-yl)pyrimidine-2,4(1H,3H)-dione] | 8.03 | 9.03 | 8.69 | 8.33
4 | N#Cc1cccc([C@H]2C[C@@H]2c2cc(-c3c[nH]c(=O)[nH]c3=O)nn3ccnc23)c1 [Example 50, 3-((1S,2S)-2-(6-(2,4-dioxo-1,2,3,4-tetrahydropyrimidin-5-yl)imidazo[1,2-b]pyridazin-8-yl)cyclopropyl)benzonitrile] | 7.97 | 8.86 | 8.61 | 8.23

Reference: patent US12110294B2, “CD73 compounds” (Gilead Sciences, Inc., priority 2020, dated 2024)
